For 15 compounds, TGI and GI50 results are on record in PubChem BioAssay (NCI).

Molecules are shown by their SMILES.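 Growth conditions: 96-well plates. Treatment: test compound, 48 hours, 5 concentrations. Analysis: linear interpolation between bracketing concentrations; unreached endpoints set to highest concentration. GI50 = concentration required for 50% inhibition of growth. At the TGI there is no net growth.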

Among the test systems are A549 NSCLC; UO-31 renal; SF-295 CNS; UACC-62 melanoma; HT29 colon; SK-MEL-2 melanoma; SNB-19 CNS; OVCAR-3 ovarian; HCT-15 colon; SF-268 CNS; OVCAR-8 ovarian; A498 renal; OVCAR-5 ovarian; SN12C renal.
Test in all cases: NCI anticancer screen, dose series, 48 h

As for `CC(=O)OC1/C=C(\C)C(OC(C)=O)C/C=C(/C)CCC2C(/C=C/C1=O)C2(C)C` (centres undefined), the TGI in the assay on A549 NSCLC, in the assay with UO-31 renal, with SF-295 CNS, with UACC-62 melanoma, in the assay with HT29 colon and in the assay with SK-MEL-2 melanoma was greater than 100 µM throughout. The TGI in the assay with SNB-19 CNS, with OVCAR-3 ovarian, in the assay with HCT-15 colon, in the assay on SF-268 CNS, in the assay on OVCAR-8 ovarian and in the assay on A498 renal was greater than 100 µM in each case. For the same compound, the TGI in the assay on OVCAR-5 ovarian and in the assay with SN12C renal was greater than 100 µM in each case.
As to `NS(=O)(=O)c1ccc(/C=C/c2ccc(O)c(O)c2)cc1`, the GI50 is 22.3 µM with A549 NSCLC; 23.3 µM in the assay on UACC-62 melanoma; 35.4 µM in the assay on HT29 colon; 13.9 µM in the assay on HCT-15 colon; 18.2 µM with SF-268 CNS; 16.7 µM with OVCAR-8 ovarian. Moreover, the TGI with A549 NSCLC is greater than 100 µM; in the assay with UO-31 renal, 35 µM; with SF-295 CNS, 74.3 µM; in the assay with UACC-62 melanoma, 42.2 µM; with HT29 colon, greater than 100 µM; in the assay with SK-MEL-2 melanoma, 62.8 µM. For the same compound, the TGI is greater than 100 µM with SNB-19 CNS; greater than 100 µM in the assay with OVCAR-3 ovarian; greater than 100 µM in the assay with HCT-15 colon; 47.3 µM in the assay with SF-268 CNS; 56.5 µM with OVCAR-8 ovarian; greater than 100 µM with A498 renal. Besides, the TGI is greater than 100 µM in the assay on OVCAR-5 ovarian and 60.9 µM with SN12C renal.
On to `COC(=O)c1c(O)ccc2c1c1c(n2Cc2cc(OC)cc(OC)c2)C(=O)c2ccccc2C1`, for which the TGI in the assay with A549 NSCLC was greater than 100 µM; with UO-31 renal, greater than 100 µM; in the assay on SF-295 CNS it was greater than 100 µM; with UACC-62 melanoma, greater than 100 µM; in the assay on HT29 colon, 24.6 µM; with SK-MEL-2 melanoma, greater than 100 µM. Besides, the TGI in the assay with SNB-19 CNS, in the assay on OVCAR-3 ovarian, in the assay on HCT-15 colon, with SF-268 CNS, in the assay on OVCAR-8 ovarian and in the assay with A498 renal was greater than 100 µM in each case. The TGI in the assay with OVCAR-5 ovarian is 56.1 µM; in the assay on SN12C renal, greater than 100 µM.
For `CC1(C)OC(C(=O)Nc2cc3c4ccccc4ccc3c3ccccc23)C(C(=O)N2CCCCC2)O1` (centres undefined), the TGI in the assay on A549 NSCLC, with UO-31 renal, with SF-295 CNS, with UACC-62 melanoma, in the assay on HT29 colon and in the assay with SK-MEL-2 melanoma was greater than 100 µM throughout. Also, the TGI in the assay with SNB-19 CNS, with OVCAR-3 ovarian, in the assay on HCT-15 colon, with SF-268 CNS, with OVCAR-8 ovarian and in the assay on A498 renal was greater than 100 µM each time. Moreover, the TGI with OVCAR-5 ovarian and in the assay on SN12C renal was greater than 100 µM each time.
Consider `O=P(O)(O)CCP(=O)(O)O`, for which the TGI in the assay with A549 NSCLC, in the assay with UO-31 renal, in the assay with SF-295 CNS, in the assay on UACC-62 melanoma, in the assay on HT29 colon and in the assay on SK-MEL-2 melanoma was greater than 100 µM throughout. Also, the TGI in the assay with SNB-19 CNS, in the assay on OVCAR-3 ovarian, in the assay with HCT-15 colon, in the assay with SF-268 CNS, in the assay on OVCAR-8 ovarian and in the assay on A498 renal was greater than 100 µM in each case. In addition, the TGI in the assay with OVCAR-5 ovarian and in the assay on SN12C renal was greater than 100 µM throughout.
With `NC(CCCCCP(=O)(c1ccccc1)C1C=CC=CC1)C(=O)O` (centres undefined), the TGI with A549 NSCLC, in the assay with UO-31 renal, with SF-295 CNS, with UACC-62 melanoma, with HT29 colon and in the assay with SK-MEL-2 melanoma was greater than 100 µM in each case. Moreover, the TGI with SNB-19 CNS, in the assay with OVCAR-3 ovarian, in the assay on HCT-15 colon, with SF-268 CNS, in the assay with OVCAR-8 ovarian and with OVCAR-5 ovarian was greater than 100 µM each time. This compound showed a TGI in the assay with SN12C renal greater than 100 µM.
For `CCCC(=O)OCC1OC(n2ccc(N)nc2=O)C(OC(=O)CCC)C1OC(=O)CCC` (centres undefined), the TGI in the assay with A549 NSCLC, in the assay on UO-31 renal, in the assay on SF-295 CNS, in the assay on UACC-62 melanoma, with HT29 colon and in the assay on SK-MEL-2 melanoma was greater than 100 µM throughout. The TGI in the assay on SNB-19 CNS, in the assay on OVCAR-3 ovarian, in the assay with HCT-15 colon, in the assay on SF-268 CNS, in the assay with OVCAR-8 ovarian and in the assay on A498 renal was greater than 100 µM each time. Besides, the TGI with OVCAR-5 ovarian and with SN12C renal was greater than 100 µM throughout.
Turning to `Nc1c(C(=O)O)nnc2ccc(Cl)cc12`, the TGI in the assay with A549 NSCLC, in the assay on UO-31 renal, with SF-295 CNS, in the assay on UACC-62 melanoma, in the assay with HT29 colon and with SK-MEL-2 melanoma was greater than 100 µM each time. The TGI with SNB-19 CNS, in the assay on OVCAR-3 ovarian, with HCT-15 colon, with SF-268 CNS, in the assay on OVCAR-8 ovarian and in the assay with A498 renal was greater than 100 µM in each case. Moreover, the TGI in the assay with OVCAR-5 ovarian and in the assay with SN12C renal was greater than 100 µM throughout.
As for `COc1ccc(/C=C2\CCNC2=O)cc1`, the TGI in the assay with A549 NSCLC, with UO-31 renal, in the assay on SF-295 CNS, in the assay with UACC-62 melanoma, in the assay on HT29 colon and with SK-MEL-2 melanoma was greater than 100 µM throughout. Also, the TGI in the assay with SNB-19 CNS, in the assay with OVCAR-3 ovarian, in the assay on HCT-15 colon, in the assay on SF-268 CNS, in the assay on OVCAR-8 ovarian and in the assay on A498 renal was greater than 100 µM each time. Besides, the TGI in the assay on OVCAR-5 ovarian and with SN12C renal was greater than 100 µM throughout.
In the case of `O=c1sc2ccccc2n1CC1CS1` (centres undefined), the TGI in the assay on A549 NSCLC, in the assay on UO-31 renal, in the assay on SF-295 CNS, with UACC-62 melanoma, in the assay on HT29 colon and with SK-MEL-2 melanoma was greater than 100 µM throughout. In addition, the TGI in the assay with SNB-19 CNS, in the assay on OVCAR-3 ovarian, with HCT-15 colon, in the assay with SF-268 CNS, in the assay on OVCAR-8 ovarian and in the assay on OVCAR-5 ovarian was greater than 100 µM throughout. In the assay with SN12C renal, this compound came in with a TGI greater than 100 µM.
Take `O=C1c2cccc3c2C(=O)c2c(cccc21)OCCOCCOCCOCCO3`: the TGI was greater than 100 µM in the assay on A549 NSCLC; 99.8 µM in the assay on UO-31 renal; greater than 100 µM in the assay with SF-295 CNS; greater than 100 µM in the assay with UACC-62 melanoma; greater than 100 µM in the assay on HT29 colon; greater than 100 µM with SK-MEL-2 melanoma. Also, the TGI with SNB-19 CNS, with OVCAR-3 ovarian, in the assay on HCT-15 colon, in the assay on SF-268 CNS, in the assay on OVCAR-8 ovarian and with OVCAR-5 ovarian was greater than 100 µM in each case. In the assay on SN12C renal, this compound registered a TGI greater than 100 µM.
For the compound `C=CCc1c(O)c2c(c3oc(=O)cc(C)c13)CC(C)O2` (centres undefined), the TGI with A549 NSCLC, with UO-31 renal, in the assay with SF-295 CNS, in the assay on UACC-62 melanoma, in the assay with HT29 colon and in the assay on SK-MEL-2 melanoma was greater than 100 µM throughout. Besides, the TGI in the assay with SNB-19 CNS, in the assay on OVCAR-3 ovarian, with HCT-15 colon, in the assay on SF-268 CNS, in the assay on OVCAR-8 ovarian and in the assay on OVCAR-5 ovarian was greater than 100 µM throughout. In the assay on SN12C renal, this compound gave a TGI greater than 100 µM.
On to `O=c1cc[nH]c(=O)[nH]1`, for which the TGI with A549 NSCLC, in the assay with UO-31 renal, in the assay on SF-295 CNS, in the assay on UACC-62 melanoma, with HT29 colon and in the assay on SK-MEL-2 melanoma was greater than 1000 µM throughout. Further, the TGI in the assay on SNB-19 CNS was 828 µM; in the assay on OVCAR-3 ovarian, greater than 1000 µM; with HCT-15 colon it was greater than 1000 µM; in the assay with SF-268 CNS, greater than 1000 µM; with OVCAR-8 ovarian it was greater than 1000 µM; in the assay on OVCAR-5 ovarian it was greater than 956 µM. For the same compound, the TGI in the assay on SN12C renal was greater than 917 µM.
As for `CC(=O)Nc1ccc(N=Nc2c(O)c(S(=O)(=O)O)cc3cc(S(=O)(=O)O)ccc23)cc1`, the TGI with A549 NSCLC, in the assay on UO-31 renal, in the assay with SF-295 CNS, with UACC-62 melanoma, in the assay on HT29 colon and in the assay on SK-MEL-2 melanoma was greater than 100 µM each time. Moreover, the TGI with SNB-19 CNS, in the assay with OVCAR-3 ovarian, in the assay on HCT-15 colon, in the assay with SF-268 CNS, in the assay with OVCAR-8 ovarian and with OVCAR-5 ovarian was greater than 100 µM each time. In the assay on SN12C renal, this compound had a TGI greater than 100 µM.
Take `C[n+]1c2ccc(Cl)cc2nc2cc(-c3ccccc3)ccc21`: the TGI in the assay with A549 NSCLC was 47.7 µM; in the assay with UO-31 renal it was 48.7 µM; with SF-295 CNS, 11.5 µM; with UACC-62 melanoma, 43.8 µM; with HT29 colon it was greater than 100 µM; in the assay on SK-MEL-2 melanoma, 46.2 µM. Further, the TGI in the assay on SNB-19 CNS amounted to 9.59 µM; in the assay with OVCAR-3 ovarian it was 6.44 µM; with HCT-15 colon it was 39 µM; in the assay with SF-268 CNS, 35.5 µM; with OVCAR-8 ovarian, 16 µM; in the assay with OVCAR-5 ovarian, 55.5 µM. This compound showed a TGI in the assay with SN12C renal of 25.1 µM.
